Values of other authors in patent US6337095B1, “Process for the isolation of compound scopoletin useful as nitric oxide synthesis inhibitor” (Council of Scientific and Industrial Research, priority 2000, dated 2002).

Tested on: murine macrophages
Conditions: reported in literature (Planta Medica 65:400-403, 1999)

For `COc1cc2ccc(=O)oc2cc1O` [scopoletin, 7-hydroxy-6-methoxy coumarin], which “inhibition of nitric oxide (NO) synthesis” value is on record?
Its value is “showed inhibition”.
